Data on 1 compound can be found in article PMC5218480 (PLoS ONE, 2017).

The test system of this assay is MV-4-11 cells. Put plainly: Gene expression microarray analysis (Affymetrix PrimeView) and GSEA. It is filed as cell-based, human. More on the design: RFU PODN (11730768_x_at) / Fold change /veh PODN (11730768_x_at) / RFU LINC00158 (11744669_a_at) / Fold change /veh LINC00158 (11744669_a_at) / RFU DUSP10 (11751237_a_at) / Fold change /veh DUSP10 (11751237_a_at) / RFU ID3 (11757404_x_at) / Fold change /veh ID3 (11757404_x_at) / RFU PLEKHG5 (11737974_s_at) / Fold change /veh PLEKHG5 (11737974_s_at) / RFU LRRC4B (11730491_at) / Fold change /veh LRRC4B (11730491_at) / RFU GIMAP4 (11747438_a_at) / Fold change /veh GIMAP4 (11747438_a_at) / RFU KRT8 (11758183_x_at) / Fold change /veh KRT8 (11758183_x_at) / RFU CNN1 (11734310_a_at) / Fold change /veh CNN1 (11734310_a_at) / RFU VPS37D (11726825_at) / Fold change /veh VPS37D (11726825_at) / RFU C10orf10 (11716522_x_at) / Fold change /veh C10orf10 (11716522_x_at) / RFU KIR2DL2 /// KIR2DL4 /// KIR2DL5A /// KIR2DL5B /// KIR2DS1 /// KIR2DS2 /// KIR2DS3 /// KIR2DS4 /// KIR3DL3 /// KIR3DL3 /// KIR3DS1 (11738374_at) / Fold change /veh KIR2DL2 /// KIR2DL4 /// KIR2DL5A /// KIR2DL5B /// KIR2DS1 /// KIR2DS2 /// KIR2DS3 /// KIR2DS4 /// KIR3DL3 /// KIR3DL3 /// KIR3DS1 (11738374_at) / RFU C1QL1 (11718748_at) / Fold change /veh C1QL1 (11718748_at) / RFU TMPRSS4 (11747572_a_at) / Fold change /veh TMPRSS4 (11747572_a_at) / RFU HAMP (11756126_x_at) / Fold change /veh HAMP (11756126_x_at) / RFU RNFT2 (11725882_a_at) / Fold change /veh RNFT2 (11725882_a_at) / RFU NR4A2 (11747474_a_at) / Fold change /veh NR4A2 (11747474_a_at) / RFU ABCC12 (11746883_a_at) / Fold change /veh ABCC12 (11746883_a_at) / RFU TMEM136 (11760407_x_at) / Fold change /veh TMEM136 (11760407_x_at) / RFU CLDN22 /// WWC2 (11732394_at) / Fold change /veh CLDN22 /// WWC2 (11732394_at) / RFU HLA-DPB1 (11760878_x_at) / Fold change /veh HLA-DPB1 (11760878_x_at) / RFU SPINT1 (11716480_a_at) / Fold change /veh SPINT1 (11716480_a_at) / RFU GAP43 (11754022_s_at) / Fold change /veh GAP43 (11754022_s_at) / RFU A4GNT (11735810_at) / Fold change /veh A4GNT (11735810_at) / RFU PRB3 (11715151_x_at) / Fold change /veh PRB3 (11715151_x_at) / RFU TUBB4B (11761932_at) / Fold change /veh TUBB4B (11761932_at) / RFU CAPN14 (11732068_a_at) / Fold change /veh CAPN14 (11732068_a_at) / RFU TMCC2 (11721928_a_at) / Fold change /veh TMCC2 (11721928_a_at) / RFU IRGQ (11745062_a_at) / Fold change /veh IRGQ (11745062_a_at) / RFU FAM174B (11720279_a_at) / Fold change /veh FAM174B (11720279_a_at) / RFU TMPRSS4 (11748680_a_at) / Fold change /veh TMPRSS4 (11748680_a_at) / RFU FAM212B (11763350_a_at) / Fold change /veh FAM212B (11763350_a_at) / RFU PLEKHG5 (11743358_a_at) / Fold change /veh PLEKHG5 (11743358_a_at) / RFU ZSCAN30 (11745921_a_at) / Fold change /veh ZSCAN30 (11745921_a_at) / RFU CMKLR1 (11741424_a_at) / Fold change /veh CMKLR1 (11741424_a_at) / RFU LOC101060620 /// MAPK8IP1 (11723275_at) / Fold change /veh LOC101060620 /// MAPK8IP1 (11723275_at) / RFU SPTSSB (11747773_x_at) / Fold change /veh SPTSSB (11747773_x_at) / RFU PRSS12 (11739890_at) / Fold change /veh PRSS12 (11739890_at) / RFU BIN1 (11741810_x_at) / Fold change /veh BIN1 (11741810_x_at) / RFU WNT11 (11732464_a_at) / Fold change /veh WNT11 (11732464_a_at) / RFU C10orf10 (11716521_a_at) / Fold change /veh C10orf10 (11716521_a_at) / RFU C5orf56 (11738089_at) / Fold change /veh C5orf56 (11738089_at) / RFU CYB561 (11721691_x_at) / Fold change /veh CYB561 (11721691_x_at) / RFU ANKRD19P (11752326_a_at) / Fold change /veh ANKRD19P (11752326_a_at) / RFU OR2T12 /// OR2T33 /// OR2T8 (11738714_s_at) / Fold change /veh OR2T12 /// OR2T33 /// OR2T8 (11738714_s_at) / RFU VCAN (11748164_a_at) / Fold change /veh VCAN (11748164_a_at) / RFU JSRP1 (11732532_at) / Fold change /veh JSRP1 (11732532_at) / RFU KRTAP10-11 (11738290_x_at) / Fold change /veh KRTAP10-11 (11738290_x_at) / RFU MYO3A (11730013_a_at) / Fold change /veh MYO3A (11730013_a_at) / RFU EBF3 (11725865_a_at) / Fold change /veh EBF3 (11725865_a_at) / RFU CAMK2N1 (11719241_x_at) / Fold change /veh CAMK2N1 (11719241_x_at) / RFU C5orf56 (11738088_a_at) / Fold change /veh C5orf56 (11738088_a_at) / RFU OLFML3 (11715873_a_at) / Fold change /veh OLFML3 (11715873_a_at) / RFU LOC100653217 /// NTM (11731650_a_at) / Fold change /veh LOC100653217 /// NTM (11731650_a_at) / RFU MAPK11 (11762145_a_at) / Fold change /veh MAPK11 (11762145_a_at) / RFU FIZ1 (11724087_x_at) / Fold change /veh FIZ1 (11724087_x_at) / RFU OASL (11726364_x_at) / Fold change /veh OASL (11726364_x_at) / RFU SOX15 (11748057_x_at) / Fold change /veh SOX15 (11748057_x_at) / RFU CD79A (11719716_a_at) / Fold change /veh CD79A (11719716_a_at) / RFU HIST1H1D (11736915_at) / Fold change /veh HIST1H1D (11736915_at) / RFU CASKIN2 (11723855_a_at) / Fold change /veh CASKIN2 (11723855_a_at) / RFU LOC730098 (11760151_x_at) / Fold change /veh LOC730098 (11760151_x_at) / RFU OR4N2 (11742367_at) / Fold change /veh OR4N2 (11742367_at) / RFU PRRT2 (11749266_a_at) / Fold change /veh PRRT2 (11749266_a_at) / RFU SNX32 (11753110_a_at) / Fold change /veh SNX32 (11753110_a_at) / RFU CDHR5 (11726645_a_at) / Fold change /veh CDHR5 (11726645_a_at) / RFU RCAN1 (11760418_a_at) / Fold change /veh RCAN1 (11760418_a_at) / RFU FAM167A (11723789_a_at) / Fold change /veh FAM167A (11723789_a_at) / RFU FAM26E (11764081_at) / Fold change /veh FAM26E (11764081_at) / RFU ISYNA1 (11749810_s_at) / Fold change /veh ISYNA1 (11749810_s_at) / RFU ACY1 (11761880_at) / Fold change /veh ACY1 (11761880_at) / RFU 11764098_at / Fold change /veh 11764098_at / RFU SAMD14 (11745864_x_at) / Fold change /veh SAMD14 (11745864_x_at) / RFU NPB (11741838_a_at) / Fold change /veh NPB (11741838_a_at) / RFU TMPRSS6 (11731388_a_at) / Fold change /veh TMPRSS6 (11731388_a_at) / RFU KRTAP10-2 (11738614_at) / Fold change /veh KRTAP10-2 (11738614_at) / RFU ARHGAP8 /// PRR5-ARHGAP8 (11727945_x_at) / Fold change /veh ARHGAP8 /// PRR5-ARHGAP8 (11727945_x_at) / RFU KRTAP5-7 /// NADSYN1 (11734609_at) / Fold change /veh KRTAP5-7 /// NADSYN1 (11734609_at) / RFU RASL12 (11751679_a_at) / Fold change /veh RASL12 (11751679_a_at) / RFU CDKN2B (11736163_a_at) / Fold change /veh CDKN2B (11736163_a_at) / RFU PRF1 (11729649_at) / Fold change /veh PRF1 (11729649_at) / RFU, ZNF638 /// ZNF638-IT1 / Fold change vs veh, ZNF638 /// ZNF638-IT1 / RFU, PANK3 / Fold change vs veh, PANK3 / RFU, SH3YL1 / Fold change vs veh, SH3YL1 / RFU, ZEB2 / Fold change vs veh, ZEB2 / RFU, NRIP1 / Fold change vs veh, NRIP1 / RFU, PTTG1IP / Fold change vs veh, PTTG1IP / RFU, CAPN2 / Fold change vs veh, CAPN2 / RFU, MED14 / Fold change vs veh, MED14 / RFU, SNORA58 / Fold change vs veh, SNORA58 / RFU, C1orf63 / Fold change vs veh, C1orf63 / RFU, LRRFIP1 / Fold change vs veh, LRRFIP1 / RFU, NDUFAF7 / Fold change vs veh, NDUFAF7 / RFU, SLC12A2 / Fold change vs veh, SLC12A2 / RFU, IBTK / Fold change vs veh, IBTK / RFU, ESF1 / Fold change vs veh, ESF1 / Fold change vs veh, TMEM50B / RFU, TAOK1 / Fold change vs veh, TAOK1 / RFU, ACBD3 / Fold change vs veh, ACBD3 / RFU, TMA16 / Fold change vs veh, TMA16 / RFU, RWDD3 / Fold change vs veh, RWDD3 / RFU, BCAT1 / Fold change vs veh, BCAT1 / RFU, EDEM3 / Fold change vs veh, EDEM3 / RFU, TMEM33 / Fold change vs veh, TMEM33 / RFU, WDR75 / Fold change vs veh, WDR75 / RFU, AHCTF1 / Fold change vs veh, AHCTF1 / RFU, TFRC / Fold change vs veh, TFRC / RFU, ZDHHC17 / Fold change vs veh, ZDHHC17 / RFU, NOM1 / Fold change vs veh, NOM1 / RFU, ARL8B / Fold change vs veh, ARL8B / RFU, ZBTB11 / Fold change vs veh, ZBTB11 / RFU, TAMM41 / Fold change vs veh, TAMM41 / RFU, KIAA1704 /// LOC100996395 / Fold change vs veh, KIAA1704 /// LOC100996395 / RFU, ING1 / Fold change vs veh, ING1 / RFU, TRMT61B / Fold change vs veh, TRMT61B / RFU, FUBP3 / Fold change vs veh, FUBP3 / RFU, TP53 / Fold change vs veh, TP53 / RFU, TNKS2 / Fold change vs veh, TNKS2 / RFU, ZFP14 / Fold change vs veh, ZFP14 / RFU, ACTR2 / Fold change vs veh, ACTR2 / RFU, PPP3R1 / Fold change vs veh, PPP3R1 / RFU, PIK3R1 / Fold change vs veh, PIK3R1 / RFU, HNRNPA1 / Fold change vs veh, HNRNPA1 / RFU, RNF170 / Fold change vs veh, RNF170 / RFU, ZNF28 / Fold change vs veh, ZNF28 / RFU, RNGTT / Fold change vs veh, RNGTT / RFU, OGT / Fold change vs veh, OGT / RFU, BRD1 / Fold change vs veh, BRD1 / RFU, MARS / Fold change vs veh, MARS / RFU, ZNF655 / Fold change vs veh, ZNF655 / RFU, FAHD1 / Fold change vs veh, FAHD1 / RFU, BDP1 / Fold change vs veh, BDP1 / RFU, LRRCC1 / Fold change vs veh, LRRCC1 / RFU, ARID1A / Fold change vs veh, ARID1A / RFU, ZNF146 / Fold change vs veh, ZNF146 / RFU, ZNF330 / Fold change vs veh, ZNF330 / RFU, GPN3 / Fold change vs veh, GPN3 / RFU, C9orf123 / Fold change vs veh, C9orf123 / RFU, N4BP2L2 / Fold change vs veh, N4BP2L2 / RFU, ARFIP1 / Fold change vs veh, ARFIP1 / RFU, FAM179B / Fold change vs veh, FAM179B / RFU, BCL10 / Fold change vs veh, BCL10 / RFU, UHRF1BP1L / Fold change vs veh, UHRF1BP1L / RFU, BET1 / Fold change vs veh, BET1 / RFU, CNOT2 / Fold change vs veh, CNOT2 / RFU, ZNF268 / Fold change vs veh, ZNF268 / Fold change vs veh, ZNF507 / RFU, DGCR2 / Fold change vs veh, DGCR2 / RFU, WDSUB1 / Fold change vs veh, WDSUB1 / Fold change vs veh, HSP90B1 /// MIR3652 / RFU, ADSS / Fold change vs veh, ADSS / RFU, GK / Fold change vs veh, GK / RFU, ZNF148 / Fold change vs veh, ZNF148 / RFU, TAF9 / Fold change vs veh, TAF9 / RFU, SLC1A5 / Fold change vs veh, SLC1A5 / RFU, SLMO2 / Fold change vs veh, SLMO2 / RFU, ABCC4 / Fold change vs veh, ABCC4 / RFU, LOC101060439 /// RAP1B / Fold change vs veh, LOC101060439 /// RAP1B / RFU, RFX7 / Fold change vs veh, RFX7 / RFU, GTPBP10 / Fold change vs veh, GTPBP10 / RFU, CNEP1R1 / Fold change vs veh, CNEP1R1 / RFU, BIVM-ERCC5 /// ERCC5 / Fold change vs veh, BIVM-ERCC5 /// ERCC5 / RFU, ILF3 / Fold change vs veh, ILF3 / RFU 11762660_at / Fold change /veh 11762660_at / RFU VCAN (11757783_s_at) / Fold change /veh VCAN (11757783_s_at) / RFU DDX43 (11728927_at) / Fold change /veh DDX43 (11728927_at) / RFU KRT8 (11758188_x_at) / Fold change /veh KRT8 (11758188_x_at) / RFU NKD1 (11759106_at) / Fold change /veh NKD1 (11759106_at) / RFU SRD5A1 (11742802_a_at) / Fold change /veh SRD5A1 (11742802_a_at) / RFU TPSAB1 /// TPSB2 (11721975_s_at) / Fold change /veh TPSAB1 /// TPSB2 (11721975_s_at) / RFU GSTM3 (11746129_a_at) / Fold change /veh GSTM3 (11746129_a_at) / RFU IL23R (11737362_x_at) / Fold change /veh IL23R (11737362_x_at) / RFU TMEM51 (11727254_a_at) / Fold change /veh TMEM51 (11727254_a_at) / RFU PIWIL2 (11732686_x_at) / Fold change /veh PIWIL2 (11732686_x_at) / RFU ORM1 (11744905_x_at) / Fold change /veh ORM1 (11744905_x_at) / RFU CCDC152 (11743942_at) / Fold change /veh CCDC152 (11743942_at) / RFU ECM1 (11717891_a_at) / Fold change /veh ECM1 (11717891_a_at) / RFU IL23R (11748794_a_at) / Fold change /veh IL23R (11748794_a_at) / RFU TNFAIP8L3 (11732012_x_at) / Fold change /veh TNFAIP8L3 (11732012_x_at) / RFU MBOAT4 (11741988_at) / Fold change /veh MBOAT4 (11741988_at) / RFU 11764193_at / Fold change /veh 11764193_at / RFU TMEM53 (11763286_at) / Fold change /veh TMEM53 (11763286_at) / RFU MAGEB2 (11727129_at) / Fold change /veh MAGEB2 (11727129_at) / RFU TMEM200A (11744735_a_at) / Fold change /veh TMEM200A (11744735_a_at) / RFU CCDC152 (11751479_a_at) / Fold change /veh CCDC152 (11751479_a_at) / RFU FAM211A (11726209_a_at) / Fold change /veh FAM211A (11726209_a_at) / RFU RGS16 (11746705_a_at) / Fold change /veh RGS16 (11746705_a_at) / RFU VCAN (11755009_s_at) / Fold change /veh VCAN (11755009_s_at) / RFU RHOB (11743442_s_at) / Fold change /veh RHOB (11743442_s_at) / RFU RGS16 (11720943_a_at) / Fold change /veh RGS16 (11720943_a_at) / RFU RGS16 (11720944_at) / Fold change /veh RGS16 (11720944_at) / RFU, VPS4B / Fold change vs veh, VPS4B / RFU, CREB1 / Fold change vs veh, CREB1 / RFU, DNAJC13 / Fold change vs veh, DNAJC13 / RFU, GNAQ / Fold change vs veh, GNAQ / RFU, CDK5R1 / Fold change vs veh, CDK5R1 / RFU, ZRANB3 / Fold change vs veh, ZRANB3 / RFU, CUL4A / Fold change vs veh, CUL4A / RFU, CCNY / Fold change vs veh, CCNY / RFU, UFL1 / Fold change vs veh, UFL1 / RFU, COG3 / Fold change vs veh, COG3 / RFU, DIAPH2 / Fold change vs veh, DIAPH2 / RFU, SKA2 / Fold change vs veh, SKA2 / RFU, AFF3 / Fold change vs veh, AFF3 / RFU, LMF1 / Fold change vs veh, LMF1 / RFU, IPO11 / Fold change vs veh, IPO11 / RFU, DFFB / Fold change vs veh, DFFB / RFU, FOXP1 / Fold change vs veh, FOXP1 / RFU, CARD8 / Fold change vs veh, CARD8 / RFU, STRN3 / Fold change vs veh, STRN3 / RFU, ADK / Fold change vs veh, ADK / RFU, RASSF2 / Fold change vs veh, RASSF2 / RFU, WIPF1 / Fold change vs veh, WIPF1 / RFU, LARP1B / Fold change vs veh, LARP1B / RFU, RASA1 / Fold change vs veh, RASA1 / RFU, RB1 / Fold change vs veh, RB1 / RFU, PPFIA1 / Fold change vs veh, PPFIA1 / RFU, MAT2A / Fold change vs veh, MAT2A / RFU, CCT5 / Fold change vs veh, CCT5 / RFU, WDR92 / Fold change vs veh, WDR92 / RFU, CUX1 / Fold change vs veh, CUX1 / RFU, TTC7A / Fold change vs veh, TTC7A / RFU, TMEM135 / Fold change vs veh, TMEM135 / RFU, DEPTOR / Fold change vs veh, DEPTOR / RFU, CPM / Fold change vs veh, CPM / RFU, DNAJB6 / Fold change vs veh, DNAJB6 / RFU, CACNA2D3 / Fold change vs veh, CACNA2D3 / RFU, DTX4 / Fold change vs veh, DTX4 / RFU, TFCP2 / Fold change vs veh, TFCP2 / RFU, GMCL1 /// GMCL1P1 / Fold change vs veh, GMCL1 /// GMCL1P1 / RFU, AEBP2 / Fold change vs veh, AEBP2 / RFU, SNHG1 /// SNORD22 /// SNORD25 /// SNORD26 /// SNORD27 /// SNORD28 /// SNORD29 /// SNORD31 / Fold change vs veh, SNHG1 /// SNORD22 /// SNORD25 /// SNORD26 /// SNORD27 /// SNORD28 /// SNORD29 /// SNORD31 / Fold change (Aza/veh), C12orf56 (ProbeSet 11735607_a_at) / Fold change (ACY-1035/veh), C12orf56 (ProbeSet 11735607_a_at) / Fold change (Aza/veh), FGFR1OP (ProbeSet 11751329_s_at) / Fold change (ACY-1035/veh), FGFR1OP (ProbeSet 11751329_s_at) / Fold change (Aza/veh), VPS36 (ProbeSet 11739960_a_at) / Fold change (ACY-1035/veh), VPS36 (ProbeSet 11739960_a_at) / RFU SYPL1 (11715823_x_at) / Fold change /veh SYPL1 (11715823_x_at) / RFU IGFBP7 (11715501_s_at) / Fold change /veh IGFBP7 (11715501_s_at) / RFU REEP3 (11722064_at) / Fold change /veh REEP3 (11722064_at) / RFU IGLL1 (11728026_x_at) / Fold change /veh IGLL1 (11728026_x_at): dose or concentration left out as unconfirmed. To be noted: MV-4-11 cells, 48 hours.

On to `Nc1ccc(-c2cccs2)cc1NC(=O)c1ccc2c(c1)cc(C1CC1)n2CCN1CCOCC1` [ACY-1035], for which the “Fold change /veh LOC101060620 /// MAPK8IP1 (11723275_at)” value is recorded as 0.98.
